Results on 22 compounds are retold here after US20110136801A1, “Novel Compounds” (Dainippon Sumitomo Pharma Co. Ltd., priority 2009, published 2011).

Where only a bound is given, the exact number is not on record here.

In general, EC50 refers to the concentration at which the effect is half-maximal.

For the experiment, the target named is T1, human TLR7 (Homo sapiens, UniProt Q9NYK1).
T1 construct: expressed in transfected cells; host or cells: HEK293 cell line stably expressing the pNiFty2-SEAP reporter plasmid; TLR7 in pUNO vector, blasticidin selection
T1 sequence (Q9NYK1 27-1049): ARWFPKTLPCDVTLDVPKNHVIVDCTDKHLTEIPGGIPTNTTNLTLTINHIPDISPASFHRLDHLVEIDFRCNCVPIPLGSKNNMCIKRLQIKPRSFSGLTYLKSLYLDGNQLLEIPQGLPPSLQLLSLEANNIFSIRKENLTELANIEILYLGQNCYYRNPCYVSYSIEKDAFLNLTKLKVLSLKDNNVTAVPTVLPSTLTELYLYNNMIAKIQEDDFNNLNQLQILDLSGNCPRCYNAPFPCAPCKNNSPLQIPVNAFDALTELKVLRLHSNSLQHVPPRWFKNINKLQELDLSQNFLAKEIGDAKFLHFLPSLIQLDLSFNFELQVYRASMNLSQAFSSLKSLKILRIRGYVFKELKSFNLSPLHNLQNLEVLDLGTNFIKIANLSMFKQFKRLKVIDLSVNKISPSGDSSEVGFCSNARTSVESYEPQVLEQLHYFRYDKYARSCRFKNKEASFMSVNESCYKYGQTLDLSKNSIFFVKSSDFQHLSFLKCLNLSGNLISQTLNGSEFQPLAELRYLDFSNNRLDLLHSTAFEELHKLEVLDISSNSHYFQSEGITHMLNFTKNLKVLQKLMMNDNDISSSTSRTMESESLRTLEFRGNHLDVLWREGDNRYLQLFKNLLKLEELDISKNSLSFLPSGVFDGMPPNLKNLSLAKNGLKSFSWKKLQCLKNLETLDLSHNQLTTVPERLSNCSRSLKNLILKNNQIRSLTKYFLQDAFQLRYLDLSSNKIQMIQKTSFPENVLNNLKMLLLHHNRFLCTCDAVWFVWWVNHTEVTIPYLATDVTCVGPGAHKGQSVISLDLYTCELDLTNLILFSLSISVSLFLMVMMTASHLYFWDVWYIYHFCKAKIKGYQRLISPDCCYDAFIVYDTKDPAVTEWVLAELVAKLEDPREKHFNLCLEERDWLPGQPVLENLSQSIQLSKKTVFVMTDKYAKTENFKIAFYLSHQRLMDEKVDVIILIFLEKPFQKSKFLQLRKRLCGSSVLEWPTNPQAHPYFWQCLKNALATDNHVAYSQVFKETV
In words: Human TLR7 Assay (SEAP reporter in HEK293 cells).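 Further: Read-out is secreted alkaline phosphatase made under an NFkB/ELAM-1 composite promoter, reporting TLR7-triggered NFkB activation.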 Format: cell-based. The settings on record: HEK293 cell line expressing human TLR7 and pNiFty2-SEAP reporter, overnight incubation at 37° C., 0.1% DMSO; read-out: hTLR7 EC50.
Excerpt: The most common variant sequence of human TLR7 (represented by the EMBL sequence AF240467) was cloned into the mammalian cell expression vector pUNO and transfected into a HEK293 cell line already stably expressing the pNiFty2-SEAP reporter plasmid; integration of the reporter gene was maintained by selection with the antibiotic zeocin. Transfectants with stable TLR7 expression were selected using the antibiotic blasticidin. In this reporter cell-line, expression of secreted alkaline phosphatase (SEAP) is controlled by an NFkB/ELAM-1 composite promoter comprising five NFkB sites combined with the proximal ELAM-1 promoter. TLR signaling leads to the translocation of NFkB and activation of the promoter results in expression of the SEAP gene. TLR7-specific activation was assessed by determining the level of SEAP produced following overnight incubation of the cells at 37° C. with the standard compound in the presence of 0.1% (v/v) dimethylsulfoxide (DMSO). Concentration dependent induction of SEAP production by compounds was expressed as the concentration of compound which produced half of the maximal level of SEAP induction for that compound (EC50).
In the case of `CCN(CC)CC(=O)N(CCCn1c(CCOC)nc2c(N)nc3ccccc3c21)Cc1cccc(OCC(=O)OCCOC)c1` [Example 29, 2-Methoxyethyl 2-{3-[(N-{3-[4-amino-2-(2-methoxyethyl)-1H-imidazo[4,5-c]quinolin-1-yl]propyl}-2-(diethylamino)acetamido)methyl]phenoxy}acetate], the EC50 amounted to 174 nM.
Consider `CCCCc1nc2c(N)nc3ccccc3c2n1CCCN(Cc1cccc(OCC(=O)OC(C)C)c1)C(=O)CN(C)C` [Example 159, Isopropyl 2-[3-({N-[3-(4-amino-2-butyl-1H-imidazo[4,5-c]quinolin-1-yl)propyl]-2-(dimethylamino)acetamido}methyl)phenoxy]acetate], for which the EC50 amounted to 139 nM.
The result for `CCOC(=O)COc1ccc(CN(CCCn2c(CCOC)nc3c(N)nc4ccccc4c32)C(=O)CN(CC)CC)cc1` [Example 37, Ethyl 2-{4-[(N-{3-[4-amino-2-(2-methoxyethyl)-1H-imidazo[4,5-c]quinolin-1-yl]propyl}-2-(diethylamino)acetamido)methyl]phenoxy}acetate] reads 38.3 nM.
The result for `CCN(CC)CC(=O)N(CCCn1c(CCOC)nc2c(N)nc3ccccc3c21)Cc1cccc(OCC(=O)OC2CCC2)c1` [Example 81, Cyclobutyl 2-{3-[(N-{3-[4-amino-2-(2-methoxyethyl)-1H-imidazo[4,5-c]quinolin-1-yl]propyl}-2-{diethylamino}acetamido)methyl]phenoxy}acetate] reads 56.1 nM; that for `CCN(CC)CC(=O)N(CCCCn1c(CCOC)nc2c(N)nc3ccccc3c21)Cc1cccc(OCC(=O)OC(C)(C)C)c1` [Example 48, tert-Butyl 2-{3-[(N-{4-[4-amino-2-(2-methoxyethyl)-1H-imidazo[4,5-c]quinolin-1-yl]butyl}-2-{diethylamino}acetamido)methyl]phenoxy}acetate], 24.7 nM.
For the compound `CCOCc1nc2c(N)nc3ccccc3c2n1CCCN(Cc1cccc(OC(C)(C)C(=O)OC)c1)C(=O)CN1CCCC1` [Example 171, Methyl 2-{3-[(N-{3-[4-amino-2-(ethoxymethyl)-1H-imidazo[4,5-c]quinolin-1-yl]propyl}-2-{pyrrolidin-1-yl}acetamido)methyl]phenoxy}-2-methylpropanoate], the EC50 turned out to be 560 nM.
Take `CCOC(=O)C1(Oc2cccc(CN(CCCn3c(CCOC)nc4c(N)nc5ccccc5c43)C(=O)CN(CC)CC)c2)CCC1` [Example 59, Ethyl 1-{3-[(N-{3-[4-amino-2-(2-methoxyethyl)-1H-imidazo[4,5-c]quinolin-1-yl]propyl}-2-{diethylamino}acetamido)methyl]phenoxy}cyclobutanecarboxylate]: the EC50 was 69 nM.
The value for `CCOCc1nc2c(N)nc3ccccc3c2n1CCCN(Cc1cccc(OC(C)(C)C(=O)OCC)c1)C(=O)CN(CC)CC` [Example 162, Ethyl 2-{3-[(N-{3-[4-amino-2-(ethoxymethyl)-1H-imidazo[4,5-c]quinolin-1-yl]propyl}-2-{diethylamino}acetamido)methyl]phenoxy}-2-methylpropanoate] was 96.4 nM.
On to `CCCCc1nc2c(N)nc3ccccc3c2n1CCCN(Cc1cccc(OCC(=O)OC)c1)C(=O)CN1CCCC1` [Example 13, Methyl (3-{[[3-(4-amino-2-butyl-1H-imidazo[4,5-c]quinolin-1-yl)propyl](pyrrolidin-1-ylacetyl)amino]methyl}phenoxy)acetate], for which the EC50 came out at 136 nM.
Regarding `CCOC(=O)COc1cc(F)cc(CN(CCCn2c(CCOC)nc3c(N)nc4ccccc4c32)C(=O)CN(CC)CC)c1` [Example 124, Ethyl 2-{3-[(N-{3-[4-amino-2-(2-methoxyethyl)-1H-imidazo[4,5-c]quinolin-1-yl]propyl}-2-{diethylamino}acetamido)methyl]-5-fluorophenoxy}acetate], the half-maximal effective concentration (EC50) amounted to 40.3 nM.
For the compound `CCN(CC)CC(=O)N(CCCn1c(CCOC)nc2c(N)nc3ccccc3c21)Cc1ccc(OCC(=O)OC)cc1` [Example 36, Methyl 2-{4-[(N-{3-[4-amino-2-(2-methoxyethyl)-1H-imidazo[4,5-c]quinolin-1-yl]propyl}-2-(diethylamino)acetamido)methyl]phenoxy}acetate], the 50% effective concentration (EC50) was determined as 84.5 nM.
The value for `CCCCc1nc2c(N)nc3ccccc3c2n1CCCN(Cc1cccc(OCC(=O)OC)c1)C(=O)CN1CCN(CCOC)CC1` [Example 12, Methyl {3-[([3-(4-amino-2-butyl-1H-imidazo[4,5-c]quinolin-1-yl)propyl]{[4-(2-methoxyethyl)piperazin-1-yl]acetyl}amino)methyl]phenoxy}acetate] was 432 nM; that for `COCCc1nc2c(N)nc3ccccc3c2n1CCCN(Cc1cccc(OCC(=O)OC(C)C)c1)C(=O)CN1CCOCC1` [Example 112, Isopropyl 2-{3-[(N-{3-[4-amino-2-(2-methoxyethyl)-1H-imidazo[4,5-c]quinolin-1-yl]propyl}-2-morpholinoacetamido)methyl]phenoxy}acetate] was 756 nM.
Turning to `COCCc1nc2c(N)nc3ccccc3c2n1CCCN(Cc1cccc(OCC(=O)OC)c1)C(=O)CN1CCCCC1` [Example 19, Methyl (3-{[[3-(4-amino-2-(2-methoxyethyl)-1H-imidazo[4,5-c]quinolin-1-yl)propyl](piperidin-1-ylacetyl)amino]methyl}phenoxy)acetate], the concentration for a half-maximal effect (EC50) stood at 178 nM.
As for `CCN(C)CC(=O)N(CCCn1c(CCOC)nc2c(N)nc3ccccc3c21)Cc1cccc(OCC(=O)OC2CCCC2)c1` [Example 111, Cyclopentyl 2-{3-[(N-{3-[4-amino-2-(2-methoxyethyl)-1H-imidazo[4,5-c]quinolin-1-yl]propyl}-2-{ethyl(methyl)amino}acetamido)methyl]phenoxy}acetate], the EC50 turned out to be 123 nM.
Turning to `CCOC(=O)COc1cccc(CN(CCCCn2c(CCOC)nc3c(N)nc4ccccc4c32)C(=O)NCCN(C)C)c1` [Example 127, Ethyl 2-{3-[(1-{4-[4-amino-2-(2-methoxyethyl)-1H-imidazo[4,5-c]quinolin-1-yl]butyl}-3-{2-(dimethylamino)ethyl}ureido)methyl]phenoxy}acetate], the concentration for a half-maximal effect (EC50) was found to be 42.9 nM.
The result for `CCN(CC)CC(=O)N(CCCn1c(CCOC)nc2c(N)nc3ccccc3c21)Cc1ccc(F)c(OCC(=O)OC)c1` [Example 120, Methyl 2-{5-[(N-{3-[4-amino-2-(2-methoxyethyl)-1H-imidazo[4,5-c]quinolin-1-yl]propyl}-2-{diethylamino}acetamido)methyl]-2-fluorophenoxy}acetate] reads 278 nM.
Consider `CCN(CC)CC(=O)N(CCn1c(CCOC)nc2c(N)nc3ccccc3c21)Cc1cccc(OC(C)(C)C(=O)OC)c1` [Example 107, Methyl 2-{3-[(N-{2-[4-amino-2-(2-methoxyethyl)-1H-imidazo[4,5-c]quinolin-1-yl]ethyl}-2-{diethylamino}acetamido)methyl]phenoxy}-2-methylpropanoate], for which the EC50 is above 10000 nM.
The value for `CCCCc1nc2c(N)nc3ccccc3c2n1CCCN(Cc1cccc(OC(C)(C)C(=O)OCC)c1)C(=O)CN(C)C` [Example 155, Ethyl 2-[3-({N-[3-(4-amino-2-butyl-1H-imidazo[4,5-c]quinolin-1-yl)propyl]-2-(dimethylamino)acetamido}methyl)phenoxy]-2-methylpropanoate] was 235 nM; that for `CCN(CC)CC(=O)N(CCCn1c(CCOC)nc2c(N)nc3ccccc3c21)Cc1cccc(OC2(C(=O)OC)CC2)c1` [Example 79, Methyl 1-{3-[(N-{3-[4-amino-2-(2-methoxyethyl)-1H-imidazo[4,5-c]quinolin-1-yl]propyl}-2-{diethylamino}acetamido)methyl]phenoxy}cyclopropanecarboxylate] was 51.8 nM.
Take `CCCCc1nc2c(N)nc3ccccc3c2n1CCCN(Cc1cccc(OC(C)(C)C(=O)OC)c1)C(=O)CN1CCCC1` [Example 169, Methyl 2-[3-({N-[3-(4-amino-2-butyl-1H-imidazo[4,5-c]quinolin-1-yl)propyl]-2-(pyrrolidin-1-yl)acetamido}methyl)phenoxy]-2-methylpropanoate]: the EC50 was 155 nM.
`CCCc1nc2c(N)nc3ccccc3c2n1CCCN(Cc1cccc(OCC(=O)OC(C)C)c1)C(=O)CN(CC)CC` [Example 160, Isopropyl 2-[3-({N-[3-(4-amino-2-propyl-1H-imidazo[4,5-c]quinolin-1-yl)propyl]-2-(diethylamino)acetamido}methyl)phenoxy]acetate]: the EC50 stood at 260 nM.
